ChEMBL document CHEMBL4020734, “Identification of a novel fluoropyrrole derivative as a potassium-competitive acid blocker with long duration of action” (Bioorg Med Chem, 2017)
Active and inactive are the calls of the source. The calls are words filed in the database; no cut-off is given here.

What was measured:
[1] = Inhibition of H+/K+-ATPase in porcine stomach gastric mucosal microsomes assessed as reduction in inorganic phosphate production using ATP as substrate preincubated for 30 mins followed by ATP addition in presence of KCl by malachite green reagent based colorimetric assay; parameters: species or system Sus scrofa
[2] = Lipophilicity, log D of the compound at pH 7.4 by HPLC analysis; format: physicochemical; settings: buffer
Rattus norvegicus [3] = assay: Inhibition of histamine-induced acid secretion in Jcl:SD rat gastric at 1 mg/kg, iv pretreated for 3 mins followed by histamine.2HCl treatment measured after 3 hrs by titration method; format: functional
[4] = Cytotoxicity against human HepG2 cells assessed as cellular ATP level at 100 uM after 1 day by ATPLite assay relative to control; format: cell-based; settings: read-out: Activity
hERG (KCNH2) = hERG (KCNH2) (Homo sapiens, UniProt Q12809); assay: Inhibition of human ERG expressed in HEK cells at 10 uM at -75 mV holding potential by Whole-cell voltage clamp assay relative to control; format: cell-based; settings: HEK cells expressing human ERG
Sequence of hERG (KCNH2) (Q12809 whole entry): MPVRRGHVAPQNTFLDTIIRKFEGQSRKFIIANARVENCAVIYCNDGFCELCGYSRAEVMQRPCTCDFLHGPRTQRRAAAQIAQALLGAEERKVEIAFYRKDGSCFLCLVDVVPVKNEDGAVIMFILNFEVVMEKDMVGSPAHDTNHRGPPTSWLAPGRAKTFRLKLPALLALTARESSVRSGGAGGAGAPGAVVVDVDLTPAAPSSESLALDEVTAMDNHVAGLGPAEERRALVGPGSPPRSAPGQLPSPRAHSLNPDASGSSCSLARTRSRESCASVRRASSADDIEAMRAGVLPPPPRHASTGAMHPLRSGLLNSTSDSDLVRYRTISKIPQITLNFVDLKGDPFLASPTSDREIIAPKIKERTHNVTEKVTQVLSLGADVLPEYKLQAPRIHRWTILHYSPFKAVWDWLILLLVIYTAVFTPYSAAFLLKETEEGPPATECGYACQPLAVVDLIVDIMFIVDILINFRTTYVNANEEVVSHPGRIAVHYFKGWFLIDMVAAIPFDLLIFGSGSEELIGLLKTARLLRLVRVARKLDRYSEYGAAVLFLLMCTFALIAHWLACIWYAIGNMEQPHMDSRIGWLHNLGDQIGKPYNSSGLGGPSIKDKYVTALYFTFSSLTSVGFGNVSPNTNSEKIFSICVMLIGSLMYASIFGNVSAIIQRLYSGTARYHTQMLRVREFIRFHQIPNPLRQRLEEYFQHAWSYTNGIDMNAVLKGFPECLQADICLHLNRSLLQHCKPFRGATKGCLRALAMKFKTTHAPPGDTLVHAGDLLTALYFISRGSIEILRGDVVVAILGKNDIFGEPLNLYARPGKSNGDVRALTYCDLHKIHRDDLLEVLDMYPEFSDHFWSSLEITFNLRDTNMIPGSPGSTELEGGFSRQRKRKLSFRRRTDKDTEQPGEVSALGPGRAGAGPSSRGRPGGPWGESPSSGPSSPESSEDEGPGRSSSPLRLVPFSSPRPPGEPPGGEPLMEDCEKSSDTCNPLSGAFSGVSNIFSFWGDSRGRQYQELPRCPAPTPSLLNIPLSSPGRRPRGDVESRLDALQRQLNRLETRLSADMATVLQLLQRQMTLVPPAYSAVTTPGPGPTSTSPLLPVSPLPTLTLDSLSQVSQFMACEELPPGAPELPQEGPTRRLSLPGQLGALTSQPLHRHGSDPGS

[5] = Inhibition of CYP450 (unknown origin); format: ADME; settings: human
Rattus norvegicus [6] = assay: Inhibition of histamine-induced acid secretion in Jcl:SD rat gastric assessed as pH of gastric perfusate at 3 mg/kg, iv pretreated for 3 mins followed by histamine.2HCl treatment measured in early time point by glass electrode method (reference value: 2); format: functional
Rattus norvegicus [7] = assay: Inhibition of histamine-induced acid secretion in Jcl:SD rat gastric assessed as increase in pH of gastric perfusate at 3 mg/kg, iv pretreated for 3 mins followed by histamine.2HCl treatment measured up to 5 hrs by glass electrode method; format: functional, organism-based
Canis familiaris [8] = assay: Inhibition of histamine-induced acid secretion in dog heidenhain pouch at 3 mg/kg, po treated 1 day after and 1 to 48 hrs before histamine.2HCl treatment measured 30 mins post histamine challenge by titration method; format: functional, organism-based; settings: Canis lupus familiaris
Rattus norvegicus [9] = assay: Inhibition of histamine-induced acid secretion in Jcl:SD rat gastric assessed as pH of gastric perfusate at 1 mg/kg, iv pretreated for 3 mins followed by histamine.2HCl treatment measured after 150 to 180 mins by glass electrode method (reference value: 2); format: functional
[10] = Cytotoxicity against human HepG2 cells assessed as cellular ATP level at 30 uM after 1 day by ATPLite assay relative to control; format: cell-based; settings: read-out: Activity
Canis familiaris [11] = assay: Inhibition of histamine-induced acid secretion in dog heidenhain pouch at 1 mg/kg, po treated 1 day after and 1 to 48 hrs before histamine.2HCl treatment measured 30 mins post histamine challenge by titration method; format: functional, organism-based; settings: Canis lupus familiaris
[12] = Effective permeability of the compound at 10 uM at pH 5 after 3 hrs by PAMPA; format: physicochemical; settings: read-out: Peff
[13] = Dissociation constant, pKa of the compound; format: physicochemical
[14] = Effective permeability of the compound at 10 uM at pH 7.4 after 3 hrs by PAMPA; format: physicochemical; settings: read-out: Peff
Rattus norvegicus [15] = assay: Inhibition of histamine-induced acid secretion in Jcl:SD rat gastric assessed as increase in pH of gastric perfusate at 1 mg/kg, iv pretreated for 3 mins followed by histamine.2HCl treatment measured after 2 hrs by glass electrode method; format: functional, organism-based
Rattus norvegicus [16] = assay: Inhibition of histamine-induced acid secretion in Jcl:SD rat gastric assessed as pH of gastric perfusate at 1 mg/kg, iv pretreated for 3 mins followed by histamine.2HCl treatment measured up to 2 hrs by glass electrode method (reference value: 2); format: functional
[17] = Metabolic stability of the compound
[18] = Solubility of the compound; format: physicochemical
[19] = Stability of the compound under acidic condition; format: physicochemical
Rattus norvegicus [20] = assay: Inhibition of histamine-induced acid secretion in po dosed rat gastric pretreated for 1 hr followed by histamine.2HCl treatment measured after 3 hrs by titration method; format: functional, organism-based
Rattus norvegicus [21] = assay: Inhibition of histamine-induced acid secretion in Jcl:SD rat gastric assessed as pH of gastric perfusate at 0.7 mg/kg, iv pretreated for 3 mins followed by histamine.2HCl treatment measured after 5 hrs by glass electrode method (reference value: 2); format: functional
Canis familiaris [22] = assay: Inhibition of histamine-induced acid secretion in dog heidenhain pouch at 0.8 mg/kg, po treated 1 day after and 1 to 48 hrs before histamine.2HCl treatment measured 30 mins post histamine challenge by titration method; format: functional; settings: Canis lupus familiaris

SMILES	IC50 [1] [nM]	logD [2]	inhibition in vivo at 1 mg/kg (Rattus norvegicus [3]) [%]	viability at 24 h, 100 µM [4] [%]	inhibition at 10 µM (hERG (KCNH2)) [%]	other results
CNCc1cn(S(=O)(=O)c2cccnc2)c(-c2cccnc2F)c1Cl	99	0.48	95	64.5	41.3	
CNCc1cc(-c2ccncc2F)n(S(=O)(=O)c2cccnc2)c1	290	-0.34	48	78.8	18.8	
CNCc1cc(-c2ccccn2)n(S(=O)(=O)c2ccccc2)c1	120	0.28		91.2	48	
Cc1c(OCC(F)(F)F)ccnc1C[S+]([O-])c1nc2ccccc2[nH]1 (stereo not drawn) [LANSOPRAZOLE]						inhibition (INH) [5]: Active; pH (Rattus norvegicus [6]): <5; inhibition (Rattus norvegicus [7]): inactive; inhibition (Canis familiaris [8]): Active
CNCc1cc(-c2cccnc2F)n(S(=O)(=O)c2cccnc2)c1	210	-0.85	96	85.7	4.4	pH (Rattus norvegicus [9]): 5
CNCc1cc(-c2cccnc2C)n(S(=O)(=O)c2cccnc2)c1	250	0.06	-41	107		
CNCc1cc(-c2cccnc2F)n(S(=O)(=O)c2ccsc2)c1	32	-0.83	98	64	60	
CNCc1cc(-c2ccccc2)n(S(=O)(=O)c2ccccc2)c1	9.4	1.44	96		87.5	viability at 24 h, 30 µM [10]: 53.8%
CNCc1cn(S(=O)(=O)c2cccnc2)c(-c2cccnc2F)c1C	220	-0.4	93	47.1	30.3	
CNCc1cc(-c2ccccc2)n(S(=O)(=O)c2ccc(OC)cc2)c1	30	1.54	95		89.1	inhibition (Canis familiaris [11]): Active; Papp at 3 h, 10 µM [12]: 19.8 ×10⁻⁶ cm/s; viability at 24 h, 30 µM [10]: 22.1%; pKa [13]: 9.48; Papp at 3 h, 10 µM [14]: 24.6 ×10⁻⁶ cm/s
CNCc1cc(-c2ccccc2)n(S(=O)(=O)c2ccc(C)cc2)c1	46 to 55	1.83	66			viability at 24 h, 30 µM [10]: 38.6%; pKa [13]: 9.49
CNCc1cc(-c2cncnc2)n(S(=O)(=O)c2ccccc2)c1	410	-0.4		97.5	24.2	
CNCc1cc(-c2cccnc2F)n(S(=O)(=O)c2ccoc2)c1	92	-1.31	82	77.4	59.3	
CNCc1cc(-c2cccnc2F)n(S(=O)(=O)c2cccs2)c1	32	-0.69	96	74.9	63	
CNCc1cc(-c2ccccc2)n(S(=O)(=O)c2cccnc2)c1		0.73				
CNCc1cc(-c2cccnc2F)n(S(=O)(=O)c2cccc(C#N)c2)c1	89	-0.36	99	46.7	46.7	
CNCc1cc(-c2ccccc2F)n(S(=O)(=O)c2cccnc2)c1 [VONOPRAZAN]		0.39				pKa [13]: 9.3
CNCc1cc(-c2cccnc2F)n(S(=O)(=O)c2ccccc2)c1	26	-0.09	99	59.9	57	

SMILES	IC50 [1] [nM]	logD [2]	inhibition in vivo at 1 mg/kg (Rattus norvegicus [3]) [%]	viability at 24 h, 100 µM [4] [%]	inhibition at 10 µM (hERG (KCNH2)) [%]	other results
CNCc1cc(-c2cccnc2Cl)n(S(=O)(=O)c2cccnc2)c1	120	-0.5	92	82.9	10.6	
CNCc1cc(-c2cccnc2F)n(S(=O)(=O)c2ccccn2)c1	120	0.05	81	78.6		
CNCc1cc(-c2cccnc2Cl)n(S(=O)(=O)c2ccccc2)c1	43	-0.1	99	76.3	40.9	
CNCc1cc(-c2cccnc2C#N)n(S(=O)(=O)c2ccccc2)c1	120	-0.32	99	82.1	32.9	inhibition (Rattus norvegicus [15]): inactive; pH (Rattus norvegicus [16]): >5
CNCc1cc(-c2cccnc2)n(S(=O)(=O)c2ccccc2)c1	130	0.08	4	95	43.3	inhibition (INH) [5]: Not Active; Stability [17]: Stable; solubility [18]: Soluble
CNCc1cc(-c2ncccc2C)n(S(=O)(=O)c2cccnc2)c1	1300	0.53	5	88.7		
CNCc1cn(S(=O)(=O)c2cccnc2)c(-c2cccnc2F)c1F	49	0.04	98	100	39.8	Stability [19]: Stable; inhibition (INH) [5]: Not Active; inhibition (Rattus norvegicus [20]): Dose-dependent effect; pH (Rattus norvegicus [21]): 6; inhibition in vivo at 0.8 mg/kg (Canis familiaris [22]): 100%; Papp at 3 h, 10 µM [12]: 4.7 ×10⁻⁶ cm/s; pKa [13]: 8.54; Papp at 3 h, 10 µM [14]: 25.6 ×10⁻⁶ cm/s
CNCc1cc(-c2ccccc2C(F)(F)F)n(S(=O)(=O)c2ccc(C)cc2)c1	88	1.94	86			viability at 24 h, 30 µM [10]: 0.5%
CNCc1cc(-c2cccc(F)c2)n(S(=O)(=O)c2ccc(C)cc2)c1	19	1.98	77			viability at 24 h, 30 µM [10]: 0.6%; pKa [13]: 9.31
CNCc1cc(-c2ccccc2C)n(S(=O)(=O)c2ccc(C)cc2)c1	62	2.12	92			viability at 24 h, 30 µM [10]: 0.3%
CNCc1cc(-c2cnccc2C)n(S(=O)(=O)c2cccnc2)c1	230	-0.51	-54	86	8.3	
CNCc1cc(-c2cccnc2F)n(S(=O)(=O)c2cccc(OC)c2)c1	28	0.1	92	30.6	72.8	
CNCc1cc(-c2cccnc2C#N)n(S(=O)(=O)c2cccnc2)c1	530	-1.29	48	85.3	1.9	
CNCc1cc(-c2ccccc2F)n(S(=O)(=O)c2ccc(C)cc2)c1	34	1.56	91			viability at 24 h, 30 µM [10]: 8%; pKa [13]: 9.48
CNCc1cc(-c2cccnc2F)n(S(=O)(=O)c2cccc(F)c2)c1	33	0.23	99	65.9	56.2	
CNCc1cc(-c2cccnc2F)n(S(=O)(=O)c2ccc(OC)nc2)c1	40	0.24	97	47.6	33.1	
CNCc1cc(-c2ccc(F)cc2)n(S(=O)(=O)c2ccc(C)cc2)c1	90	2.05	86			viability at 24 h, 30 µM [10]: 0.4%; pKa [13]: 9.4
CNCc1cc(-c2cccnc2F)n(S(=O)(=O)c2ccco2)c1	59	-1.15	74	68.7	49.1	
